Holding throughout (assay type): cell-based, human
In test [1] the test system is Survivin and cleaved-form Caspase 3 in H1975 cells. Kind of test: Western blot and immunofluorescence of Survivin and cleaved Caspase 3 in H1975 cells. From the text:
FIG. 5 is a result of immunofluorescence staining and confocal microscopy. The green color indicated location of Survivin protein excited with 488 nm. The β-tubulin protein was stained with Cy3-labeled mouse anti-β-tubulin antibody (red color). The fluorescence intensity of β-tubulin was excited with 543 nm and the emission was collected in range of 560-580 nm. Blue color indicated location of nuclei following stained with Hoechst 33258 and was excited with 405 nm and the emission was collected in range of 415-450 nm. Overlapping localization is shown in the merged images.
FIG. 6 is a result of immunofluorescence staining and confocal microscopy. The green color indicated location of cleaved Caspase 3 protein excited with 488 nm. The β-tubulin protein was stained with Cy3-labeled mouse anti-β-tubulin antibody (red color). The fluorescence intensity of β-tubulin was excited with 543 nm and the emission was collected in range of 560-580 nm. Blue color indicated location of nuclei following stained with Hoechst 33258 and was excited with 405 nm and the emission was collected in range of 415-450 nm. Overlapping localization is shown in the merged images.
Reduction of Survivin protein expression has shown to inhibit tumor growth in NSCLC. Please refer to FIG. 4. H1975 cells with EGFR (T790M) mutation were treated with or without SP101 (20˜30 μM for 24 hours) and analyzed by Western blot. […] Actin was an internal control protein.
Further, immunofluorescence staining and confocal microscopy were utilized to determine the expression and cell morphology of Survivin and cleaved-form Caspase 3 after treatment with SP101 in H1975 cells with EGFR (T790M) mutation. The cells were treated with or without 30 μM of SP101 for 24 hours. At the end of treatment, the cells were fixed with 4% paraformaldehyde at 37 °C for 1 hour. The fixed cells were incubated with rabbit anti-Survivin antibody or rabbit anti-cleaved caspase-3 antibody at 4 °C overnight. Then the cells were stained with goat anti-rabbit IgG Dylight 488 at 37 °C for 1 hour. Please refer to FIGS. 5 and 6. The green fluorescence (Dylight 488) indicated location of Survivin and cleaved-form Caspase 3. The blue fluorescence (Hoechst 33258) and red fluorescence (Cy3) represented nucleus and β-tubulin respectively. Treatment with 30 μM SP101 for 24 hours, Survivin protein expression was reduced; in addition, the apoptotic bodies and cleaved-form Caspase 3 protein were induced.

For a further test, the system named is A549 cells. Kind of test: MTT cell viability assay in A549 cells. The conditions noted are these: 0~40 μM for 24 hours, compared with Gefitinib. The procedure:
After treatment, the cells were re-cultured in fresh medium for 2 days. The cell viability was analyzed by MTT assays. The results were obtained from three independent experiments and the bar represents the mean±S.E.M. ***p<0.001 indicates significant difference between Gefitinib and SP101 treated samples.
A549 (ATCC number: CCL-185) was a non-small cell lung carcinoma cell line which expressed wild type EGFR and with K-Ras mutation (G12S). H1975 (ATCC number: CRL-5908) was a non-small cell lung carcinoma cell line which expressed EGFR L858R/T790M mutation. Oct4 and Nanog overexpression in A549-ON presented the properties of cancer stem-like cells, as well as epithelial-mesenchymal transdifferentiation. PLC26 was lung cancer cells that separated from pleural effusion of a clinical lung cancer patient (IRB number: 103-011-E). A549-ON cells were cultured in DMEM medium. A549 and H1975 cells were maintained in RPMI-1640 medium. […]
Please refer to FIG. 12. […] To compare the cell viability of SP101 and Gefitinib in K-Ras mutation-drug resistant A549 and A549-ON cell lines, the cells were treated with 0˜40 μM SP101 or Gefitinib for 24 hours, and analyzed by MTT assays. […] To determine the effect of SP101 and Gefitinib on the cell viability in cancer stem-like A549-ON cells, the cells were treated with 10˜40 μM SP101 or Gefitinib for 24 hours, and analyzed by MTT assays.

The test system of test [2] is H1975 cells with EGFR (T790M) mutation. Kind of test: MTT cell viability assay in H1975 cells. The conditions noted are these: 0~40 μM for 24 hours, re-cultured 2 days, compared with Gefitinib. From the text: A549 (ATCC number: CCL-185) was a non-small cell lung carcinoma cell line which expressed wild type EGFR and with K-Ras mutation (G12S). H1975 (ATCC number: CRL-5908) was a non-small cell lung carcinoma cell line which expressed EGFR L858R/T790M mutation. Oct4 and Nanog overexpression in A549-ON presented the properties of cancer stem-like cells, as well as epithelial-mesenchymal transdifferentiation. PLC26 was lung cancer cells that separated from pleural effusion of a clinical lung cancer patient (IRB number: 103-011-E). A549-ON cells were cultured in DMEM medium. A549 and H1975 cells were maintained in RPMI-1640 medium. PLC26 cells were maintained in LHC-9 medium. DMEM and RPMI medium were supplemented with 10% fetal bovine serum (FBS), 100 units/ml penicillin, 100 μg/ml streptomycin and sodium bicarbonate. LHC-9 medium was supplemented with 5% FBS and 100 units/ml penicillin. These cells were cultured at 37° C. and 5% CO2 in a humidified incubator.
Please refer to FIG. 2. The H1975 cells were treated with 0˜40 μM of SP101 or Gefitinib for 24 hours. After treatment, the H1975 cells were re-cultured in fresh medium for 2 days. The cell viability was analyzed by MTT assays. The results were obtained from three independent experiments and the var represents the mean±S.E.M. ***p<0.001 indicates significant difference between Gefitinib and SP101 treated samples.

[3] abbreviates: 30 μM for 24 hours, immunofluorescence and confocal microscopy.
The mark [4] stands for this setting: 20~30 μM for 24 hours, Western blot.

As to `CCCCCCCCCCCCOC(=O)CCC(=O)N1CCN(CCCOc2cc3c(Nc4ccc(F)c(Cl)c4)ncnc3cc2OC)CC1` [SP101, dodecyl 4-(4-(3-(4-(3-chloro-4-fluorophenylamino)-7-methoxyquinazolin-6-yloxy)propyl)piperazin-1-yl)-4-oxobutanoate], in test [1] (setting [3]), the Survivin protein expression result is recorded as “reduced”; the “apoptotic bodies and cleaved-form Caspase 3 protein” value was “induced”. For the same molecule, in test [1] (setting [4]), the Survivin protein level result was “reduced” and the “apoptotic protein level of cleaved-form Caspase 3” value is given as “induced”. Moreover, the “reduction of cell viability” value in the test on A549 cells is reported as “more potent on the reduction of cell viability than Gefitinib”. Further, in test [2], the cell viability inhibition result is reported as “significantly higher in the SP101 group than in the Gefitinib group”.

For the origin of these results see patent US9980967B1, “Method for overcoming drug resistance of EGFR mutation and cancerous stemness of human non-small cell lung carcinoma” (NATIONAL CHIAO TUNG UNIVERSITY, priority 2017, dated 2018).
